Experimental data from paper PMC5992379 (Frontiers in Molecular Neuroscience, 2018).
“And” between values parts separate entries of the source, which are not always exact repeats. Identical values can stand only once. Like-named read-outs stand apart in the source and are kept apart here.

Tests used:
[1] = for Clearance: 1 μM WOBE437, preliminary; for MAB (estimated maximal bioavailability): from liver microsome clearance
Method: Human or mice microsome clearance experiment were carried out as according to a previously describe protocol ([Soethoudt et al., 2017]). […] After 1, 3, 6, 9, 15, 25, 35, and 45 min, 40 μL of the preparation was transferred and quenched with 3:1 (v/v) acetonitrile containing internal standards. Samples were then cooled and centrifuged before analysis by LC-MS/MS. Log peak area ratios (test compound peak area/internal standard peak area) are plotted against incubation time using a linear fit. The calculated slope is used to determine the intrinsic clearance. Data are obtained from single experiments measured with multiple time-points.

[2] = tested on: endocannabinoid levels (AEA, 2-AG); experiment: Endocannabinoid, N-acylethanolamine and WOBE437 levels by LC-MS/MS after the hot plate test; assay type: in vivo, BALB/c male mice
From the text: The mice were sacrificed by decapitation after gavage administration. […] Whole brain samples were dissected between the hemispheres.
Samples were centrifuged and the organic phase was recovered.

[3] = tested on: BALB/c male mice; design: method as in Chicca et al., 2017; conditions: i.p.; ref Chicca et al., 2017; cited from earlier work
[4] = tested on: BALB/c mice; conditions: for effect of antagonist on the antiallodynia effect of WOBE437, 3 days treatment / effect of antagonist on the antiinflammatory (edema) effect of WOBE437, 3 days treatment / effect of antagonist on the antiallodynia effect of WOBE437, single dose: antagonist i.p. 30 min before WOBE437 10 mg/kg i.p.
Method: BALB/c mice were anesthetized with xylazine/ketamine (5 and 10 mg/kg, respectively) and subsequently monoarthritis was induced by intra-articular injection of complete Freund’s adjuvant (CFA, 40 μL; Sigma-Aldrich, St. Louis, MO, United states) into the right knee joint. The inflammation was allowed to develop for 14 days prior to pharmacological treatments starting at day 15 for 1 or 3 days, respectively. Mechanical sensitivity (allodynia) and knee diameter (edema) were evaluated 1 h post treatment in the ipsilateral and contralateral knees. Articular sensitivity was evaluated using a digital algometer (Bioseb, United states). […] A cut-off force of 300 g was considered to avoid damage in the tissue. The measurements were done in triplicates and the average was considered for the statistical analysis. To evaluate the degree of inflammation, knee diameter was measured in both extremities using a digital micrometer (Mitutoyo, United states). […] Indomethacin (5 mg/kg; Sigma-Aldrich, United states) was used as a reference drug (positive control). For all the compounds, dimethylsulfoxide (DMSO) was used as vehicle (20 μL, i.p.).

[5] = tested on: Cnr1, Cnr2, Nape-pld, Dagla; experiment: Real-time PCR of ECS genes after 3 days treatment in the monoarthritis model; assay type: in vivo, BALB/c mice; conditions: 10 mg/kg i.p., somatosensory cortex, thalamus, articular tissue
Method: Total RNA extraction and reverse transcription were carried out with a previously described protocol ([Castro-Torres et al., 2015]). The kit LightCycler® FastStart DNA Master^PLUS SYBR Green I (Roche, United states) was used for the real-time PCR, according to manufacturer protocol, and the reaction was performed in the LightCycler 2.0 equipment (Roche, United states). The relative gene expression was calculated by using the method known as 2ˆ(-ΔΔCt) ([Livak and Schmittgen, 2001]). ΔΔCt was calculated using the following formula:
(1) ΔΔCt=(CtTE−CtHE)−(CtTC−CtHC)
Finally 2ˆ(-ΔΔCt) was calculated to obtain the fold change of gene expression. Every sample (n = 6-15, per group and region) was analyzed in duplicated and the mean value was considered for ΔΔCt calculation. Beta-actin was used as the housekeeping gene and mean of vehicle group was used as a calibrator. Sequences and size products of the primers for beta actin (Actb) cannabinoid CB1 receptor (Cnr1), cannabinoid CB2 receptor (Cnr2), diacylglycerol lipase alpha (Dagla), N-acylphosphatidylethanolamine specific phospholipase D (Nape-pld) are shown in Table 1.

[6] = tested on: BALB/c mice; experiment: Open field test in monoarthritic mice; assay type: in vivo; conditions: WOBE437 i.p.
Method: Potential motor changes were evaluated in an open field box (40 cm × 40 cm × 30 cm, Plexiglas). The mice were individually placed in the center and allowed to move freely for 5 min. The locomotion activity was recorded with the OpenFieldTest^© ([Reynoso-Moreno et al., 2017]) and traveled distance was evaluated automatically. After every experiment, the box was cleaned with 70% ethanol to remove odors.

[7] = tested on: BALB/c male mice; experiment: Tetrad test; assay type: in vivo; conditions: 50 mg/kg p.o., 1 h after gavage
Method: The tetrad test was performed in the following order: rectal temperature, catalepsy, locomotion and analgesia. Rectal temperature was measured before (basal) and 1 h post gavage administration by using a thermocouple probe (Physitemp Instruments Inc., United states) and results were reported as the difference (Δ) between both temperatures. The bar test was used to evaluated catalepsy by placing the mouse in an imposed position with both forelimbs resting on a bar of 4 cm high; the end point of catalepsy was considered when both front limbs were removed or remained over 120 s. Locomotor activity was determined by placing the mouse on a rotarod (Erweka, Germany) at 4 rpm, the latency to fall was measured with a cut-off time of 120 s. Each mouse was previously trained to walk over the rotarod for at least 120 s. Catalepsy and locomotion were measured in three trials. Analgesia was evaluated with the hot plate test, each mouse was placed in a 54–56°C hot plate (Thermo Fisher Scientific, United states) with a Plexiglas cylinder, the latency to first nociceptive response (paw lick or foot shake) was measured.

[8] = tested on: BALB/c male mice; experiment: Hot plate test (acute pain) after oral administration; assay type: in vivo
Method: The test was performed using a clean 54–56°C hot plate (Thermo Fisher Scientific, United states) with a Plexiglas cylinder. The latency to show the first nociceptive response (paw lick or foot shake) was measured.

[9] = for WOBE437 brain levels / WOBE437 plasma levels: 20 min after gavage
Method: The mice were sacrificed by decapitation after gavage administration. Brain, blood, liver, kidney, and spleen were collected for the LC-MS/MS analyses. All tissues were briefly washed with ice cold PBS and immediately snap-frozen and stored at -80°C. Whole brain samples were dissected between the hemispheres. Blood samples were immediately centrifuged to obtain plasma, which was stored at -80°C.
Samples extractions and LC-MS/MS measurements we performed as previously described ([Chicca et al., 2017]). Briefly, tissues were weighted and transferred in to extraction tubes containing three steel beads and 0.1 M formic acid. Tissues were homogenized and rapidly transferred to glass tubes containing 1.5 mL of ethyl acetate:hexane (9:1) 0.1% formic acid and internal standards (ISs). Samples were centrifuged and the organic phase was recovered. After evaporation, the extracts were reconstituted in 200 μL of ACN:ddH2O (8:2). 10 μL of the solution were injected in the LC-MS/MS system using the same LC and ionization protocols as described ([Chicca et al., 2017]).

[10] = 50 mg/kg p.o., 1 h after gavage

CCCCCCC/C=C/C=C/C(=O)NCCc1ccc(OC)c(OC)c1 [WOBE437]
Clearance ([1]; human liver microsomes): 0.657 mL/min/kg | MAB (estimated maximal bioavailability) ([1]; humans): 4% | MAB (estimated maximal bioavailability) ([1]; mice): 17% | Clearance ([1]; mouse liver microsomes): 0.174 mL/min/kg | 2-AG levels in plasma ([2]; 25 mg/kg p.o., 1 h): 21.4 ± 4.5 pmol/mL | 2-AG levels in plasma ([2]; 50 mg/kg p.o., 1 h): 22.6 ± 4.8 pmol/mL | 2-AG levels in somatosensory cortex ([2]; 50 mg/kg p.o., 1 h): no changes | AEA and 2-AG levels in total brain ([2]; 50 mg/kg p.o., 1 h): tendency to increase | AEA levels in somatosensory cortex ([2]; 50 mg/kg p.o., 1 h): significant increase | concentration of AEA in plasma ([2]; 50 mg/kg p.o., 1 h): 2.2 ± 0.3 pmol/mL | 2-AG concentration in total brain ([2]; 50 mg/kg p.o., 1 h, tendency, not significant): 13.9 ± 2.6 nmol/g | 2-AG levels in plasma ([2]; 100 mg/kg p.o., 1 h): 23.8 ± 5.7 pmol/mL | increase of 2-AG levels in plasma ([2]; 25, 50, and 100 mg/kg p.o., vs control): 40% | levels of WOBE437 in somatosensory cortex, total brain and plasma ([2]; BALB/c mice, 1 h after p.o.): in the same range as in male C57BL6/J mice | levels of N-acylethanolamines other than AEA (PEA, OEA, LEA) ([2]; somatosensory cortex, total brain or plasma, 1 h after p.o.): No changes | fully effective dose in the hot plate test upon systemic administration [3]: 10 mg/kg | reduction in allodynia as compared to the contralateral knee ([4]; 10 mg/kg i.p., 3 days treatment): 52% | reduction of inflammation (edema) ([4]; 10 mg/kg i.p., 3 days treatment, as compared to the contralateral knee): 58% | knee diameter ([4]; 10 mg/kg i.p., 3 days treatment, ipsilateral knee): 5.3 ± 0.4 mm | allodynia after single dose ([4]; 10 mg/kg i.p., single dose, 1 h post treatment): significantly decrease allodynia | allodynia and edema at lower doses ([4]; 2.5 and 5.0 mg/kg i.p.): did not show any significant changes | expression of Cnr1, Cnr2, Dagla and Nape-pld [5]: did not lead to any significant change | spontaneous motor activity (travel distance) [6]: without significant observable changes | antinociception in tetrad test (hot plate) [7]: significant antinociception | motor coordination (rotarod) [7]: No statistical differences | change in body temperature ([7]; not statistically different): -0.8 ± 0.8 °C | latency of catalepsy ([7]; not statistically different): 10.5 ± 10.6 s | increase of pain threshold vs vehicle [8, 10]: 61.7% | pain threshold (latency to first nociceptive response) [8, 10]: 9.4 ± 1.9 s | pain threshold (latency to first nociceptive response) ([8]; 100 mg/kg p.o., 1 h after gavage): 11.7 ± 2.6 s | overall bioavailability compared to the i.p. administration route ([8]; from effective doses in hot plate test, 50 mg/kg p.o. vs 10 mg/kg i.p.): 20% | estimated effective dose (ED50) ([8]; p.o., hot plate): 42.5 ± 3.9 mg/kg | minimum dose necessary to significantly increase the pain threshold ([8]; p.o., hot plate): 50 mg/kg | WOBE437 brain levels ([9]; 10 mg/kg p.o.): 24.7 ± 25.3 pmol/g | WOBE437 plasma levels ([9]; 10 mg/kg p.o.): 47.3 ± 32.5 pmol/mL | apparent Cmax in brain ([9]; 50 mg/kg p.o.): ~500 pmol/g and 471.7 ± 182.6 pmol/g | apparent volume of distribution (Vd) at Cmax ([9]; 50 mg/kg p.o.): 80.4 L/kg | apparent volume of distribution (Vd) at the steady state ([9]; 50 mg/kg p.o.): 609 L/kg | factor of reduction of hepatic concentration between 20 and 40 min ([9]; 50 mg/kg p.o.): 4 | highest concentration in kidney ([9]; 50 mg/kg p.o.): 2277 ± 916 pmol/g | highest concentration in spleen ([9]; 50 mg/kg p.o.): 1030 ± 339 pmol/g | time after which WOBE437 is cleared from the brain ([9]; 50 mg/kg p.o.): approximately 180 min | tmax in kidney, liver, and spleen ([9]; 50 mg/kg p.o.): ≤ 20 min | brain levels after p.o. as compared to i.p. ([9]; 50 mg/kg p.o. vs 10 mg/kg i.p.): approximately 10 times lower | highest concentration in liver ([9]; 50 mg/kg p.o., 20 min): 4720 ± 3273 pmol/g | WOBE437 brain levels ([9]; 50 mg/kg p.o.): 534.5 ± 109.9 pmol/g | WOBE437 plasma levels ([9]; 50 mg/kg p.o.): 1731.5 ± 703.4 pmol/mL | hepatic concentration at 40 min ([9]; 50 mg/kg p.o., 40 min): 1080 pmol/g | WOBE437 concentration in brain 3 h after administration ([9]; 50 mg/kg p.o., 3 h): 18 pmol/g | Brain t1/2 ([9]; 50 mg/kg p.o., Figure 1B): 62.7 min | Plasma t1/2 ([9]; 50 mg/kg p.o., Figure 1B): 19.5 min | estimated concentration in brain ([9]; 50 mg/kg p.o., equivalent of brain Cmax): 399.7 ± 154.7 nM | Cmax ([9]; read-out: apparent Cmax in plasma, 50 mg/kg p.o.): ~2000 nM and 1930 nM

O=C(Nc1ccccc1)c1cc([N+](=O)[O-])ccc1Cl [GW9662]
effect of antagonist on the antiallodynia effect of WOBE437, 3 days treatment ([4]; 3 days): fully abolished | effect of antagonist on the antiinflammatory (edema) effect of WOBE437, 3 days treatment ([4]; 3 days): only partially prevented | effect of antagonist on the antiallodynia effect of WOBE437, single dose ([4]; single dose): did not block

SR144528
effect of antagonist on the antiallodynia effect of WOBE437, 3 days treatment ([4]; 3 days): fully abolished | effect of antagonist on the antiallodynia effect of WOBE437, single dose ([4]; single dose): completely prevented

Oc1cc2c(cc1O)CN(C(=S)NCCc1ccc(Cl)cc1)CCC2 [capsazepine]
effect of antagonist on the antiallodynia effect of WOBE437, single dose ([4]; single dose): completely prevented | tolerability of the antagonist together with 3 days WOBE437 treatment ([4]; capsazepine with WOBE437 10 mg/kg i.p., 3 days): unexpected hypersensitivity

Cc1c(C(=O)NN2CCCCC2)nn(-c2ccc(Cl)cc2Cl)c1-c1ccc(Cl)cc1 [rimonabant]
effect of antagonist on the antiallodynia effect of WOBE437, 3 days treatment ([4]; 3 days): fully abolished | effect of antagonist on the antiinflammatory (edema) effect of WOBE437, 3 days treatment ([4]; 3 days): only partially prevented | effect of antagonist on the antiallodynia effect of WOBE437, single dose ([4]; single dose): did not block | effect of antagonist pre-treatment on the antinociceptive effect of WOBE437 ([8]; rimonabant 5 mg/kg i.p. 30 min before WOBE437 50 or 100 mg/kg p.o.): completely abolished
